Where a name gives a salt, the structure may show the parent alone.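 The compound was tested at five concentrations on cells cultured in 96-well plates, with a 48-hour exposure period. GI50 marks 50% less growth.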 Active and inactive are the calls of the source. No stated cut-off is given here; in the data, active = GI50 up to about 1.1 µM and inactive = higher.
Experiments:
Assay in all cases: inhibition of tumour cell growth, NCI panel, 48 h
786-0 = system: 786-0
DU-145 = system: DU-145
HCC 2998 = system: HCC 2998
HOP-92 = system: HOP-92
K562 = system: K562
MDA-MB-435 = system: MDA-MB-435
MDA-N = system: MDA-N
Malme-3M = system: Malme-3M
NCI-H23 = system: NCI-H23
NCI-H460 = system: NCI-H460
OVCAR-5 = system: OVCAR-5
OVCAR-8 = system: OVCAR-8
RPMI-8226 = system: RPMI-8226
SK-MEL-28 = system: SK-MEL-28
SK-MEL-2 = system: SK-MEL-2
SNB-19 = system: SNB-19
SW-620 = system: SW-620
TK-10 = system: TK-10
U-251 = system: U-251
HT-29 = system: HT-29

SMILES	GI50 (786-0)	GI50 (DU-145)	GI50 (HCC 2998)	GI50 (HOP-92)	GI50 (K562)	GI50 (MDA-MB-435)	GI50 (MDA-N)	GI50 (Malme-3M)	GI50 (NCI-H23)	GI50 (NCI-H460)	GI50 (OVCAR-5)	GI50 (OVCAR-8)	GI50 (RPMI-8226)	GI50 (SK-MEL-28)	GI50 (SK-MEL-2)	GI50 (SNB-19)	GI50 (SW-620)	GI50 (TK-10)	GI50 (U-251)	GI50 (HT-29)
CC(C)CC(NC(=O)C(CSc1ccc([N+](=O)[O-])cc1)Cc1ccccc1)C(=O)Nc1ccccc1 (stereo not drawn)	44.7 µM (inactive)	89.3 µM (inactive)	> 100 µM (inactive)	> 100 µM (inactive)	85.5 µM (inactive)	> 100 µM (inactive)	> 100 µM (inactive)	27 µM (inactive)	> 100 µM (inactive)	49.8 µM (inactive)	> 100 µM (inactive)	48.8 µM (inactive)	> 100 µM (inactive)	98.2 µM (inactive)	> 100 µM (inactive)	45.5 µM (inactive)	> 100 µM (inactive)	58.2 µM (inactive)	> 100 µM (inactive)	–
Oc1cc(-c2cccc(Cl)c2)nc2cc3c(cc12)OCO3	0.294 µM (active)	0.284 µM (active)	1.31 µM (inactive)	0.951 µM (active)	–	0.0377 µM (active)	0.0255 µM (active)	0.138 µM (active)	0.951 µM (active)	0.274 µM (active)	18.8 µM (inactive)	0.647 µM (active)	0.498 µM (active)	–	0.207 µM (active)	0.726 µM (active)	0.351 µM (active)	6.31 µM (inactive)	–	2 µM (inactive)
Clc1ccc(Nc2nnc(CNc3ccc(-c4nnc(Nc5ccc(Cl)cc5)s4)cc3)s2)cc1	24.2 µM (inactive)	22.5 µM (inactive)	13.4 µM (inactive)	74.6 µM (inactive)	7.71 µM (inactive)	28.1 µM (inactive)	18.2 µM (inactive)	52.5 µM (inactive)	39.3 µM (inactive)	15.2 µM (inactive)	23.6 µM (inactive)	–	18.4 µM (inactive)	33.3 µM (inactive)	11.7 µM (inactive)	30.1 µM (inactive)	28.4 µM (inactive)	46.3 µM (inactive)	24.2 µM (inactive)	11 µM (inactive)
CN[C@@H](C)[C@H](OP(=O)(O)OC1[C@@H](O)[C@H](O)C(O)[C@H](O)[C@@H]1O)c1ccccc1 (stereo partly drawn)	> 100 µM (inactive)	> 100 µM (inactive)	> 100 µM (inactive)	> 100 µM (inactive)	–	> 100 µM (inactive)	> 100 µM (inactive)	> 100 µM (inactive)	> 100 µM (inactive)	> 100 µM (inactive)	> 100 µM (inactive)	> 100 µM (inactive)	> 100 µM (inactive)	> 100 µM (inactive)	> 100 µM (inactive)	> 100 µM (inactive)	> 100 µM (inactive)	> 100 µM (inactive)	> 100 µM (inactive)	> 100 µM (inactive)
O=C(O)c1cc2ccccc2c(/N=N/c2ccc(S(=O)(=O)Nc3ccccn3)cc2)c1O	> 100 µM (inactive)	> 100 µM (inactive)	> 100 µM (inactive)	> 100 µM (inactive)	> 100 µM (inactive)	> 100 µM (inactive)	> 100 µM (inactive)	> 100 µM (inactive)	–	> 100 µM (inactive)	> 100 µM (inactive)	> 100 µM (inactive)	> 100 µM (inactive)	> 100 µM (inactive)	> 100 µM (inactive)	< 0.01 µM (active)	> 100 µM (inactive)	> 100 µM (inactive)	> 100 µM (inactive)	> 100 µM (inactive)
O=c1oc2ccc3ccccc3c2cc1-c1cn2ccccc2n1	37.2 µM (inactive)	> 100 µM (inactive)	> 100 µM (inactive)	90.6 µM (inactive)	> 100 µM (inactive)	> 100 µM (inactive)	> 100 µM (inactive)	–	> 100 µM (inactive)	> 100 µM (inactive)	–	51.3 µM (inactive)	> 100 µM (inactive)	> 100 µM (inactive)	> 100 µM (inactive)	–	> 100 µM (inactive)	67.8 µM (inactive)	24.2 µM (inactive)	26.5 µM (inactive)
CN[C@@H]1[C@H](O)[C@H](NC)[C@H]2O[C@@]3(O)C(=O)C[C@@H](C)O[C@H]3O[C@@H]2[C@H]1O [SPECTINOMYCIN SULFATE]	> 10 µM (inactive)	> 100 µM (inactive)	> 100 µM (inactive)	> 100 µM (inactive)	> 100 µM (inactive)	> 100 µM (inactive)	> 100 µM (inactive)	> 100 µM (inactive)	> 100 µM (inactive)	> 100 µM (inactive)	> 100 µM (inactive)	> 100 µM (inactive)	> 100 µM (inactive)	> 100 µM (inactive)	–	> 100 µM (inactive)	> 100 µM (inactive)	–	> 100 µM (inactive)	> 100 µM (inactive)
